Laboratory results published in paper PMC4519324, “Substrate Specificity, Inhibitor Selectivity and Structure-Function Relationships of Aldo-Keto Reductase 1B15: A Novel Human Retinaldehyde Reductase” (PLoS ONE, 2015).
Where two headings read alike, the source gives them in different places.

Legend:
[1] = target: T1, AKR1B10 (Homo sapiens, UniProt O60218); assay: Spectrophotometric activity assay (NADPH decrease at 340 nm), substrate kinetics; assay type: biochemical; settings: for k cat / Km: substrate, spectrophotometric; for Km: read-out: Km; for activity class: at saturating concentration of substrate for AKR1B15
T1 construct: made in house
T1 sequence (O60218 whole entry): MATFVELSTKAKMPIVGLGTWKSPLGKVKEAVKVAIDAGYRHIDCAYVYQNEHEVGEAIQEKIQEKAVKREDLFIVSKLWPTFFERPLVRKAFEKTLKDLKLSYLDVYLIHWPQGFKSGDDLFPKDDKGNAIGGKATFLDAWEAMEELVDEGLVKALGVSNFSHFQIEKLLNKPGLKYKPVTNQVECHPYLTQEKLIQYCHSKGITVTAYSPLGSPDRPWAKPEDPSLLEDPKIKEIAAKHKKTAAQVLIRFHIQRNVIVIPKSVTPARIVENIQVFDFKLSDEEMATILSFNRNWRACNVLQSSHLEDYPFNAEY

[2] = target: T2, AKR1B15 (Homo sapiens, UniProt C9JRZ8); assay: as above; assay type: biochemical; settings: substrate, spectrophotometric, 0.2 mM NADPH; for Km: 100 mM sodium phosphate pH 7.0, 25°C, <1 values only approximate, read-out: Km; for k cat: pH 7.0, 25°C
T2 construct: made in house; host or cells: E. coli BL21(DE3), with or without chaperone plasmids pBB540/pBB542
T2 sequence (C9JRZ8 whole entry): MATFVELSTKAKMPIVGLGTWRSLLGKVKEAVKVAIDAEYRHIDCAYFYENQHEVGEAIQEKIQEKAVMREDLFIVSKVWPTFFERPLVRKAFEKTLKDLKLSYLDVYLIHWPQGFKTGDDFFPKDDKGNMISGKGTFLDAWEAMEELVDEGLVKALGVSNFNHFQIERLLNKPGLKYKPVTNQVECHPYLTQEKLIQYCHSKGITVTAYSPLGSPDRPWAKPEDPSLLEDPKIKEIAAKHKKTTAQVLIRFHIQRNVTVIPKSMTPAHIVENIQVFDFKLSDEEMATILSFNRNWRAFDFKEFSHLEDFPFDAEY

[3] = target: T1, AKR1B10; settings: substrate; cited from earlier work
[4] = target: T3, AKR1B1 (Homo sapiens, UniProt P15121); settings: substrate, cited from earlier work; for Km: read-out: Km
T3 construct: made in house

[5] = target: T3, AKR1B1; assay: Spectrophotometric activity assay (NADPH decrease at 340 nm), substrate kinetics; assay type: biochemical; settings: at saturating concentration of substrate for AKR1B15
Method: (§1) Activities were determined in 100 mM sodium phosphate, pH 7.0, at 25°C, using 0.2 mM NADPH in 0.2-cm path length cuvettes, with freshly prepared substrate solutions. One unit of activity is defined as the amount of enzyme required to transform 1 μmol of substrate per min at 25°C.
(§2) All compounds tested as inhibitors were dissolved in DMSO and assayed in a final concentration of 0.1% (v/v) DMSO using 6 mM D,L-glyceraldehyde as a substrate. Kinetic constant and IC50 (compound concentration that inhibits enzymatic activity by 50%) values were calculated by fitting the initial rates to the appropriate equation using Grafit 5.0 (Eritacus Software) and values were given as the mean ± standard error of three experiments. Standard error values were less than 20% of the mean values.

[6] = target: T1, AKR1B10; parameters: method as in PMID 18087047; settings: HPLC-based method; cited from earlier work
[7] = target: T2, AKR1B15; assay: HPLC enzymatic activity assay with retinaldehyde isomers; assay type: biochemical; settings: HPLC-based method; for k cat: pH 7.4
Method: Activity assays with retinoids were carried out using an HPLC-based methodology. Briefly, retinaldehyde isomers were solubilized using glass tubes by a 10-min sonication at molar ratio 1:1 with fatty acid-free bovine serum albumin in 90 mM potassium phosphate, 40 mM potassium chloride, pH 7.4. The actual amount of solubilized retinoid was determined based on the corresponding molar absorption coefficient in aqueous solutions at the appropriate wavelength: ε400 = 29,500 M^−1·cm^−1 for all-trans-retinaldehyde and ε367 = 26,700 M^−1·cm^−1 for 9-cis-retinaldehyde. For retinol isomers, which were used as standards of the reaction product, their concentration was determined in hexane using ε325 = 51,770 M^−1·cm^−1 for all-trans-retinol and ε325 = 43,765 M^−1·cm^−1 for 9-cis-retinol. The reactions were started by the addition of cofactor and carried out for 15 min at 37°C in a final volume of 0.5 mL. With the aim to measure the steady-state enzymatic activity, the concentration of enzyme was kept from 25- to 100-fold lower than that of the substrate for all the enzymatic assays. The reactions were stopped by the addition of 1 mL of cold methanol and after two rounds of extraction with hexane, retinoids were analyzed by HPLC as previously described. All retinoid manipulations were performed under dim light.
as §2

[8] = target: T3, AKR1B1; parameters: method as in PMID 18087047; settings: HPLC-based method; cited from earlier work
[9] = target: T2, AKR1B15; assay: Inhibition screening with D,L-glyceraldehyde as substrate; assay type: biochemical; settings: 6 mM D,L-glyceraldehyde as substrate, 0.1% DMSO
Method: as §1, §2

[10] = target: T1, AKR1B10; settings: AKR1B10, values in Table 3; cited from earlier work
[11] = target: T3, AKR1B1; settings: AKR1B1, values in Table 3; cited from earlier work

In the case of CC(C)=CCCC(C)=CC=O (mixture of isomers) [citral], the “k cat” value [1] is reported as 35 min⁻¹, the Km [1] is reported as 0.0045 mM and the Km [2] is reported as 1.5 µM. For the same molecule, the “k cat” value [2] was 5.5 min⁻¹.
In the case of O=CC(O)CO (racemic) [D,L-glyceraldehyde], the Km [3] is listed as 6000 µM, the “k cat (min^−1)” value [3] is listed as 35 ^a min^−1 and the Km [4] is listed as 50 µM. For the same molecule, the “k cat (min^−1)” value [4] was 31 ^a min^−1, the Km [2] was 880 µM and the “k cat” value [2] was 10.7 min⁻¹.
In the case of CC(=O)C(C)=O [2,3-butanedione], the Km [3] is listed as 540 µM, the “k cat (min^−1)” value [3] is listed as 260 ^d min^−1 and the Km [4] is listed as 110 µM. For the same molecule, the “k cat (min^−1)” value [4] was 23 ^d min^−1, the Km [2] was under 1 µM and the “k cat” value [2] was 10.6 min⁻¹.
In the case of CCCC(=O)C(C)=O [2,3-hexanedione], the Km [3] is listed as 51 µM, the “k cat (min^−1)” value [3] is listed as 79 ^b min^−1 and the Km [4] is listed as 17 µM. The “k cat (min^−1)” value [4] was 49 ^b min^−1, the Km [2] was under 1 µM and the “k cat” value [2] was 9.5 min⁻¹.
For CC(=O)CC(C)=O [2,4-pentanedione], the “k cat” value [1] was 8.6 min⁻¹, the Km [1] was 58.9 mM and the Km [2] was 40 µM. For the same molecule, the “k cat” value [2] was 2.2 min⁻¹.
With CCC(C)=O [2-butanone] the “activity class” value [1] was “LA (LA, low activity (≤ 10 mU/mg) was detected at saturating concentration of substrate for AKR1B15)”, the Km [2] was 780 µM and the “k cat” value [2] was 10.5 min⁻¹. The “activity class” value [5] was “LA (LA, low activity (≤ 10 mU/mg) was detected at saturating concentration of substrate for AKR1B15)”.
In the case of O=C1C=CCCC1 [2-cyclohexen-1-one], the “activity class” value [1] is reported as “LA (LA, low activity (≤ 10 mU/mg) was detected at saturating concentration of substrate for AKR1B15)”, the Km [2] is reported as 365 µM and the “k cat” value [2] is reported as 4.41 min⁻¹. The “activity class” value [5] was “LA (LA, low activity (≤ 10 mU/mg) was detected at saturating concentration of substrate for AKR1B15)”.
In the case of CCC(=O)CC(=O)CC [3,5-heptanedione], the Km [1] is reported as over 50 mM, the Km [2] is reported as 1300 µM and the “k cat” value [2] is reported as 5.3 min⁻¹.
For C=CC(C)=O [3-buten-2-one], the “activity class” value [1] was “LA (LA, low activity (≤ 10 mU/mg) was detected at saturating concentration of substrate for AKR1B15)”, the Km [2] was 21.3 µM and the “k cat” value [2] was 8.2 min⁻¹. For the same molecule, the “activity class” value [5] was “LA (LA, low activity (≤ 10 mU/mg) was detected at saturating concentration of substrate for AKR1B15)”.
For CCCCCC=CC(C)=O [3-nonen-2-one], the “activity class” value [1] was “LA (LA, low activity (≤ 10 mU/mg) was detected at saturating concentration of substrate for AKR1B15)”, the Km [2] was 1.7 µM and the “k cat” value [2] was 6.76 min⁻¹. The “activity class” value [5] was “LA (LA, low activity (≤ 10 mU/mg) was detected at saturating concentration of substrate for AKR1B15)”.
For CCCCCC(O)C=CC=O (centres unmarked) [4-hydroxy-2-nonenal], the Km [3] is given as 31 µM, the “k cat (min^−1)” value [3] is given as 121 ^c min^−1 and the Km [4] is given as 716 µM. For the same molecule, the “k cat (min^−1)” value [4] was 50 ^c min^−1, the Km [2] was 2.2 µM and the “k cat” value [2] was 5.2 min⁻¹.
For CC1=C(/C=C/C(C)=C\C=C\C(C)=C\C=O)C(C)(C)CCC1 [9-cis-retinaldehyde], the Km [6] is listed as 700 ± 100 nM, the “k cat” value [6] is listed as 0.9 ± 0.1 min⁻¹ and the “k cat” value ([7]; 37°C) is listed as 3.8 ± 0.2 min⁻¹. For the same molecule, the Km ([7]; 37°C, pH 7.4, read-out: Km) was 160 ± 30 nM, the Km ([7]; read-out: Km value) was 160 nM and the Km [8] was 400 ± 100 nM. The “k cat” value [8] was 0.7 ± 0.2 min⁻¹.
For CC1=C(/C=C/C(C)=C/C=C/C(C)=C/C=O)C(C)(C)CCC1 [All-trans-retinaldehyde], the Km [6] is given as 600 ± 100 nM, the “k cat” value [6] is given as 27 ± 1 min⁻¹ and the “k cat” value ([7]; 37°C) is given as 5.4 ± 0.5 min⁻¹. The Km ([7]; 37°C, pH 7.4, read-out: Km) was 1000 ± 300 nM, the Km [8] was 1100 ± 100 nM and the “k cat” value [8] was 0.9 ± 0.1 min⁻¹.
Molecule CC(/C=C1\SC(=S)N(CC(=O)O)C1=O)=C\c1ccccc1 [Epalrestat] has an IC50 [9] of over 50000 nM.
For Oc1c(F)c(F)c(-c2c(F)c(F)c(O)c(F)c2F)c(F)c1F [JF0064, 2,2’,3,3’,5,5’,6,6’-octafluoro-4,4’-biphenyldiol], the IC50 [10] is given as under 10 µM, the IC50 [11] is given as under 10 µM and the IC50 [9] is given as 34 ± 5 nM.
